Measurements: the supplement of paper PMC11061612

How the values were obtained:
Test in all cases: Bliss excess, mean over the matrix (fraction); higher = more synergy
[1] = test system: CHSA8926 (Chondrosarcoma)
Outline: (§1)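 After 24 hours at 37°C and 5% CO2 in 1536-well plates, cells in DMEM/F12 or RPMI plus 10% FBS received two-drug dose matrices for 72 hours. Viability came from CellTiter-Glo 2.0 luminescence and was scaled as inhibition, anchored at 0 by vehicle wells and at 1 by blank wells. Combination Emax is taken as the second-highest inhibition in the matrix, and Bliss excess as the observed combination effect less EA + EB − EA·EB, with EA and EB the single-agent effects.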

[2] = test system: CW-2 (Colorectal Carcinoma)
Outline: as §1

G-361 (Melanoma) = test system: G-361 (Melanoma)
Outline: as §1

[3] = test system: H9 (T-Cell Non-Hodgkin's Lymphoma)
Outline: as §1

[4] = test system: HCC1187 (Breast Carcinoma)
Outline: as §1

[5] = test system: HCC1419 (Breast Carcinoma)
Outline: as §1

[6] = test system: JHH-4 (Hepatocellular Carcinoma)
Outline: as §1

[7] = test system: KP-3 (Pancreatic Carcinoma)
Outline: as §1

[8] = test system: KYSE-270 (Esophageal Squamous Cell Carcinoma)
Outline: as §1

[9] = test system: MOLM-13 (Acute Myeloid Leukemia)
Outline: as §1

[10] = test system: NCCIT (Other Solid Carcinomas)
Outline: as §1

NCI-H2731 (Mesothelioma) = test system: NCI-H2731 (Mesothelioma)
Outline: as §1

[11] = test system: NCI-H3122 (Lung Adenocarcinoma)
Outline: as §1

[12] = test system: NCI-H526 (Small Cell Lung Carcinoma)
Outline: as §1

[13] = test system: RPMI-8226 (Plasma Cell Myeloma)
Outline: as §1

[14] = test system: SK-GT-2 (Gastric Carcinoma)
Outline: as §1

[15] = test system: SK-GT-4 (Esophageal Adenocarcinoma)
Outline: as §1

[16] = test system: ST486 (Burkitt's Lymphoma)
Outline: as §1

[17] = test system: SU-DHL-5 (B-Cell Non-Hodgkin's Lymphoma)
Outline: as §1

[18] = test system: T-T (Esophageal Squamous Cell Carcinoma)
Outline: as §1

Compound: COc1nnc2ccc(N3CCC(c4ccc(OCCN5CCN(C)C(=O)[C@H]5C)cc4)CC3)nn12 [AZD5153] + C=CCn1c(=O)c2cnc(Nc3ccc(N4CCN(C)CC4)cc3)nc2n1-c1cccc(C(C)(C)O)n1 [AZD1775] (first compound max 1 µM, partner max 1 µM)
- Bliss excess [1]: 0.0085
- Bliss excess [2]: 0.0072
- Bliss excess (G-361 (Melanoma)): -0.0271
- Bliss excess [3]: -0.0271
- Bliss excess [4]: -0.0172
- Bliss excess [5]: -0.0724
- Bliss excess [6]: 0.0205
- Bliss excess [7]: 0.0038
- Bliss excess [8]: -0.067
- Bliss excess [9]: -0.0225
- Bliss excess [10]: -0.0858
- Bliss excess (NCI-H2731 (Mesothelioma)): 0.0147
- Bliss excess [11]: -0.0461
- Bliss excess [12]: -0.0252
- Bliss excess [13]: -0.0059
- Bliss excess [14]: -0.0008
- Bliss excess [15]: -0.0369
- Bliss excess [16]: -0.0492
- Bliss excess [17]: 0.0156
- Bliss excess [18]: -0.029

Compound: Cc1cc2ncnn2cc1Nc1ncc2c(n1)n(C1CCOCC1)c(=O)n2C [AZD7648] + C[C@@H]1COCCN1C2=NC(=NC(=C2)C3(CC3)[S@](=N)(=O)C)C4=C5C=CNC5=NC=C4 [AZD6738] (first compound max 10 µM, 7x7, partner max 10 µM)
- Bliss excess [1]: -0.0325
- Bliss excess [2]: 0.0297
- Bliss excess (G-361 (Melanoma)): 0.0105
- Bliss excess [3]: -0.0034
- Bliss excess [4]: 0.0005
- Bliss excess [5]: -0.0221
- Bliss excess [6]: 0.013
- Bliss excess [7]: 0.0351
- Bliss excess [8]: 0.0008
- Bliss excess [9]: 0.0003
- Bliss excess [10]: 0.0116
- Bliss excess (NCI-H2731 (Mesothelioma)): 0.055
- Bliss excess [11]: 0.038
- Bliss excess [12]: 0.0174
- Bliss excess [13]: -0.0744
- Bliss excess [14]: -0.0034
- Bliss excess [15]: 0.0068
- Bliss excess [16]: 0.0077
- Bliss excess [17]: 0.0007
- Bliss excess [18]: 0.0146

Compound: COc1cc2c(cc1OCCCCCOc1cc3c(cc1OC)C(=O)N1C=C(C)C[C@H]1C=N3)N=C[C@@H]1CC(C)=CN1C2=O [SG3199] + O=C(c1cc(Cc2n[nH]c(=O)c3ccccc23)ccc1F)N1CCN(C(=O)C2CC2)CC1 [Olaparib] (first compound max 0.001 µM, 7x7, partner max 10 µM)
- Bliss excess [1]: -0.0566
- Bliss excess [2]: -0.0126
- Bliss excess (G-361 (Melanoma)): -0.0294
- Bliss excess [3]: -0.0205
- Bliss excess [4]: -0.006
- Bliss excess [5]: -0.119
- Bliss excess [6]: -0.0327
- Bliss excess [7]: -0.0424
- Bliss excess [8]: -0.0595
- Bliss excess [9]: 0.0049
- Bliss excess [10]: -0.0225
- Bliss excess (NCI-H2731 (Mesothelioma)): -0.0505
- Bliss excess [11]: -0.0385
- Bliss excess [12]: -0.0148
- Bliss excess [13]: -0.0213
- Bliss excess [14]: -0.0066
- Bliss excess [15]: -0.0661
- Bliss excess [16]: -0.0258
- Bliss excess [17]: -0.027
- Bliss excess [18]: -0.0418

Compound: Cc1c2c(nn1C)CSCc1cc(n(C)n1)CSc1cc(c3ccccc3c1)OCCCc1c(C(=O)O)n(C)c3c-2c(Cl)ccc13 [AZD5991] + Cn1cnc2c(F)c(Nc3ccc(Br)cc3Cl)c(C(=O)NOCCO)cc21 [Selumetinib] (first compound max 1 µM, 7x7, partner max 3 µM)
- Bliss excess [1]: -0.0772
- Bliss excess [2]: 0.0226
- Bliss excess (G-361 (Melanoma)): 0.0083
- Bliss excess [3]: 0.0145
- Bliss excess [4]: -0.0139
- Bliss excess [5]: 0.0366
- Bliss excess [6]: 0.0244
- Bliss excess [7]: -0.0378
- Bliss excess [8]: 0.0409
- Bliss excess [9]: 0.0409
- Bliss excess [10]: 0.0003
- Bliss excess (NCI-H2731 (Mesothelioma)): -0.0354
- Bliss excess [11]: -0.0255
- Bliss excess [12]: 0.0123
- Bliss excess [13]: 0.0045
- Bliss excess [14]: 0.016
- Bliss excess [15]: -0.0385
- Bliss excess [16]: 0.07
- Bliss excess [17]: 0.0221
- Bliss excess [18]: 0.0289

Compound: COc1cccc(OCCCN)c1-c1cc(Nc2cnc(C#N)cn2)n[nH]1 [Prexasertib] + CN(C)CCCOc1ccc(-c2ccc3ncc4c(c3c2)n(C2CCOCC2)c(=O)n4C)cn1 [AZD0156] (first compound max 1 µM, 7x7, partner max 1 µM)
- Bliss excess [1]: -0.039
- Bliss excess [2]: 0.0498
- Bliss excess (G-361 (Melanoma)): 0.061
- Bliss excess [3]: 0.0022
- Bliss excess [4]: -0.0016
- Bliss excess [5]: -0.0285
- Bliss excess [6]: -0.0346
- Bliss excess [7]: 0.0021
- Bliss excess [8]: -0.0024
- Bliss excess [9]: -0.0248
- Bliss excess [10]: 0.0017
- Bliss excess (NCI-H2731 (Mesothelioma)): -0.012
- Bliss excess [11]: 0.0204
- Bliss excess [12]: -0.0158
- Bliss excess [13]: -0.0048
- Bliss excess [14]: -0.0519
- Bliss excess [15]: -0.0116
- Bliss excess [16]: -0.0139
- Bliss excess [17]: -0.0089
- Bliss excess [18]: 0.0061

Compound: Cn1cnc2c(F)c(Nc3ccc(Br)cc3Cl)c(C(=O)NOCCO)cc21 [Selumetinib] + C=CCn1c(=O)c2cnc(Nc3ccc(N4CCN(C)CC4)cc3)nc2n1-c1cccc(C(C)(C)O)n1 [AZD1775] (first compound max 10 µM, partner max 1 µM)
- Bliss excess [1]: -0.0377
- Bliss excess [2]: -0.005
- Bliss excess (G-361 (Melanoma)): -0.0084
- Bliss excess [3]: -0.0037
- Bliss excess [4]: -0.0201
- Bliss excess [5]: -0.0697
- Bliss excess [6]: -0.0782
- Bliss excess [7]: -0.0312
- Bliss excess [8]: -0.0654
- Bliss excess [9]: -0.0414
- Bliss excess [10]: -0.0826
- Bliss excess (NCI-H2731 (Mesothelioma)): -0.042
- Bliss excess [11]: -0.126
- Bliss excess [12]: -0.052
- Bliss excess [13]: 0.0433
- Bliss excess [14]: -0.0872
- Bliss excess [15]: -0.0203
- Bliss excess [16]: 0.0165
- Bliss excess [17]: 0.0041
- Bliss excess [18]: -0.056

Compound: C[C@@H](c1ccc2nccn2c1)n1nnc2ncc(-c3cnn(C)c3)nc21 [Savolitinib] + Cc1c2c(nn1C)CSCc1cc(n(C)n1)CSc1cc(c3ccccc3c1)OCCCc1c(C(=O)O)n(C)c3c-2c(Cl)ccc13 [AZD5991] (first compound max 1 µM, 7x7, partner max 1 µM)
- Bliss excess [1]: 0.0233
- Bliss excess [2]: -0.0263
- Bliss excess (G-361 (Melanoma)): -0.0044
- Bliss excess [3]: 0.0005
- Bliss excess [4]: -0.0038
- Bliss excess [5]: 0.0448
- Bliss excess [6]: -0.0082
- Bliss excess [7]: -0.0785
- Bliss excess [8]: 0.0527
- Bliss excess [9]: -0.0112
- Bliss excess [10]: -0.0528
- Bliss excess (NCI-H2731 (Mesothelioma)): -0.0586
- Bliss excess [11]: -0.0562
- Bliss excess [12]: -0.025
- Bliss excess [13]: -0.0125
- Bliss excess [14]: -0.0274
- Bliss excess [15]: -0.0519
- Bliss excess [16]: -0.0159
- Bliss excess [17]: -0.0269
- Bliss excess [18]: -0.0291
